Measurements reported in ChEMBL document CHEMBL1201862, “PubChem BioAssay data set” (2004).
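Five compound concentrations were applied to cells in 96-well plates for 48 hours; endpoints were derived by simple linear interpolation of the resulting dose-response curve. GI50: concentration for 50% inhibition of growth.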 Active and inactive are the calls of the source. Cut-off read from the data, not from the text of the source: active = GI50 up to about 1.1 µM and inactive = higher.

Tests used:
Experiment in all cases: NCI tumour cell line growth inhibition, 48 h
SK-MEL-2 = system: SK-MEL-2
CAKI-1 = system: CAKI-1
NCI-H460 = system: NCI-H460
COLO 205 = system: COLO 205
SW-620 = system: SW-620
RPMI-8226 = system: RPMI-8226
UACC-257 = system: UACC-257
SK-MEL-5 = system: SK-MEL-5
ACHN = system: ACHN
A549 = system: A549
KM12 = system: KM12
HOP-62 = system: HOP-62
SF-268 = system: SF-268
SNB-19 = system: SNB-19
M14 = system: M14
OVCAR-4 = system: OVCAR-4
NCI-H522 = system: NCI-H522
UO-31 = system: UO-31
SK-OV-3 = system: SK-OV-3
NCI-H226 = system: NCI-H226

Measured: GI50

Cn1c(=O)c2nc(N3CCOCC3)cnc2n(C)c1=O
inactive: SK-MEL-2 > 100 µM | CAKI-1 > 100 µM | NCI-H460 > 100 µM | COLO 205 > 100 µM | SW-620 > 100 µM | RPMI-8226 > 100 µM | UACC-257 > 100 µM | SK-MEL-5 > 100 µM | ACHN > 100 µM | A549 > 100 µM | KM12 > 100 µM | HOP-62 > 100 µM | SF-268 > 100 µM | SNB-19 > 100 µM | M14 > 100 µM | OVCAR-4 > 100 µM | NCI-H522 > 100 µM | UO-31 > 100 µM | SK-OV-3 > 100 µM

Nc1nc(N)c2c(n1)NC(=O)c1c(c3ccccc3n1Cc1ccc(Cl)cc1)C2
inactive: NCI-H226 37.6 µM | SK-MEL-2 32.4 µM | CAKI-1 19.7 µM | NCI-H460 18.2 µM | COLO 205 16 µM | SW-620 35.8 µM | UACC-257 64.1 µM | SK-MEL-5 15.3 µM | A549 21.1 µM | HOP-62 25.5 µM | SF-268 45.5 µM | SNB-19 > 100 µM | M14 37.8 µM | OVCAR-4 18.5 µM | UO-31 > 100 µM | SK-OV-3 18.8 µM

CC1OC2=N[C@@H]1C(=O)N[C@@H](Cc1ccccc1)C1=N[C@H](C(=O)N[C@@H](Cc3ccccc3)C3=N[C@H](C(=O)N[C@H]2Cc2ccccc2)C(C)O3)C(C)O1 (stereo not given in full)
inactive: NCI-H226 29.6 µM | SK-MEL-2 25.1 µM | CAKI-1 40.4 µM | COLO 205 18.6 µM | SW-620 37.2 µM | RPMI-8226 13.5 µM | UACC-257 30.4 µM | SK-MEL-5 24.3 µM | ACHN 31.3 µM | A549 25.5 µM | KM12 61.1 µM | HOP-62 48.3 µM | M14 22.6 µM | OVCAR-4 46.2 µM | UO-31 31.8 µM | SK-OV-3 49.7 µM

Cc1cccc2nc3c(C(=O)NCCN(C)C)cccc3cc12
active: NCI-H226 1.07 µM | CAKI-1 0.07 µM | NCI-H460 0.705 µM | COLO 205 0.681 µM | SW-620 1 µM | RPMI-8226 0.789 µM | UACC-257 0.893 µM | A549 1.09 µM | SNB-19 0.94 µM
inactive: SK-MEL-2 1.88 µM | SK-MEL-5 1.64 µM | KM12 2.29 µM | HOP-62 1.72 µM | SF-268 1.68 µM | OVCAR-4 1.83 µM | UO-31 1.27 µM | SK-OV-3 2.58 µM

O=C1CCCCC[C@]12SC[C@H]1CON=C12
inactive: NCI-H226 > 100 µM | CAKI-1 22.2 µM | NCI-H460 39.1 µM | COLO 205 29.2 µM | SW-620 50.8 µM | RPMI-8226 27.2 µM | UACC-257 78.2 µM | SK-MEL-5 > 100 µM | ACHN 27.8 µM | A549 37.1 µM | KM12 60.3 µM | SNB-19 > 100 µM | M14 22.3 µM | OVCAR-4 73.8 µM | NCI-H522 22.6 µM | UO-31 26.9 µM | SK-OV-3 37.4 µM

COC(=O)c1c(O)ccc2c1c1c(n2Cc2cccc(C)c2)C(=O)c2ccccc2C1
active: OVCAR-4 0.126 µM
inactive: NCI-H226 19.7 µM | SK-MEL-2 45 µM | CAKI-1 8.75 µM | NCI-H460 19.4 µM | COLO 205 12.1 µM | SW-620 26.2 µM | RPMI-8226 12 µM | UACC-257 46.1 µM | SK-MEL-5 29.2 µM | ACHN 21.1 µM | A549 25.2 µM | HOP-62 10.4 µM | SF-268 28 µM | SNB-19 > 75 µM | M14 14.5 µM | UO-31 > 75 µM | SK-OV-3 > 75 µM

COc1ccc(C2C(Cl)C(=O)N2NC(=O)c2ccccc2O)cc1 (stereo not given)
inactive: SK-MEL-2 > 100 µM | NCI-H460 > 100 µM | COLO 205 > 100 µM | SW-620 > 100 µM | RPMI-8226 > 100 µM | UACC-257 > 100 µM | SK-MEL-5 > 100 µM | A549 > 100 µM | KM12 > 100 µM | HOP-62 > 100 µM | SF-268 > 100 µM | SNB-19 > 100 µM | M14 > 100 µM | OVCAR-4 > 100 µM | NCI-H522 > 100 µM | UO-31 > 100 µM | SK-OV-3 > 100 µM

CC(=O)OCCCCn1cc(Cn2ccc(=O)n(Cc3cn(CCCCOC(C)=O)nn3)c2=O)nn1
inactive: NCI-H226 > 100 µM | SK-MEL-2 > 100 µM | CAKI-1 > 100 µM | COLO 205 > 100 µM | SW-620 > 100 µM | RPMI-8226 > 100 µM | UACC-257 > 100 µM | SK-MEL-5 > 100 µM | ACHN > 100 µM | A549 > 100 µM | KM12 > 100 µM | HOP-62 > 100 µM | SF-268 > 100 µM | SNB-19 > 100 µM | M14 > 100 µM | OVCAR-4 > 100 µM | UO-31 > 100 µM | SK-OV-3 > 100 µM

c1ccc(COC2(OCc3ccccc3)CC3OC2C2NN=NC32)cc1 (stereo not given)
inactive: NCI-H226 18.1 µM | SK-MEL-2 > 10 µM | CAKI-1 44 µM | NCI-H460 46.1 µM | COLO 205 37.7 µM | SW-620 12.5 µM | RPMI-8226 13.7 µM | UACC-257 18.5 µM | SK-MEL-5 17.1 µM | ACHN > 100 µM | A549 57.1 µM | KM12 28.7 µM | HOP-62 41.9 µM | SF-268 22.1 µM | M14 18.5 µM | OVCAR-4 17.9 µM | UO-31 29.7 µM | SK-OV-3 > 100 µM

Cn1ccnc1C(O)(c1nccn1C)c1nccn1C
inactive: NCI-H226 > 100 µM | SK-MEL-2 > 100 µM | CAKI-1 > 100 µM | NCI-H460 > 100 µM | COLO 205 > 100 µM | SW-620 > 100 µM | UACC-257 > 100 µM | SK-MEL-5 > 100 µM | ACHN > 100 µM | KM12 > 100 µM | HOP-62 > 100 µM | SF-268 > 100 µM | SNB-19 > 100 µM | M14 > 100 µM | OVCAR-4 > 100 µM | NCI-H522 > 100 µM | UO-31 > 100 µM

CCCCP1(=O)C=CC(Cl)=C(C)C1 (stereo not given)
inactive: SK-MEL-2 > 100 µM | NCI-H460 > 100 µM | COLO 205 > 100 µM | SW-620 > 100 µM | UACC-257 > 100 µM | SK-MEL-5 > 100 µM | ACHN > 100 µM | A549 > 100 µM | KM12 > 100 µM | HOP-62 > 100 µM | SF-268 > 100 µM | M14 > 100 µM | OVCAR-4 > 100 µM | NCI-H522 > 100 µM | UO-31 > 100 µM

O=C1CSC(c2c(O)ccc3ccccc23)N1n1c(S)nnc(/C=C/c2c(O)ccc3ccccc23)c1=O (stereo not given)
inactive: SK-MEL-2 1.17 µM | RPMI-8226 1.26 µM | UACC-257 1.43 µM | A549 1.32 µM | HOP-62 4.84 µM | SNB-19 1.69 µM | NCI-H522 1.14 µM
active: CAKI-1 0.489 µM | NCI-H460 < 0.01 µM | SW-620 0.753 µM | ACHN 0.466 µM | SF-268 0.771 µM | M14 0.935 µM | OVCAR-4 0.583 µM | UO-31 0.92 µM

Cc1cc(Cl)ccc1NC1=NC(=O)C(CC(=O)Nc2cccc(Cl)c2)S1 (stereo not given)
inactive: NCI-H226 > 100 µM | SK-MEL-2 37.8 µM | CAKI-1 8.79 µM | NCI-H460 62.2 µM | COLO 205 72.1 µM | SW-620 67 µM | UACC-257 38.8 µM | SK-MEL-5 24.9 µM | ACHN 11.2 µM | A549 20.8 µM | KM12 35.2 µM | HOP-62 > 100 µM | SF-268 46.9 µM | SNB-19 > 100 µM | M14 44.7 µM | OVCAR-4 29.2 µM | NCI-H522 26.5 µM | UO-31 29.7 µM | SK-OV-3 42.5 µM

COC(=O)C1CCC(=O)N1C(=O)Cc1ccc(OC)cc1 (stereo not given)
inactive: NCI-H226 > 100 µM | CAKI-1 > 100 µM | NCI-H460 > 100 µM | COLO 205 > 100 µM | SW-620 > 100 µM | UACC-257 > 100 µM | SK-MEL-5 > 100 µM | ACHN > 100 µM | A549 > 100 µM | KM12 > 100 µM | SF-268 > 100 µM | SNB-19 > 100 µM | M14 > 100 µM | OVCAR-4 > 100 µM | NCI-H522 > 100 µM | UO-31 > 100 µM | SK-OV-3 > 100 µM

COC(=O)C1CC=C(SC(=O)c2ccccc2)N1C(=O)c1ccccc1 (stereo not given)
inactive: SK-MEL-2 > 100 µM | CAKI-1 > 100 µM | NCI-H460 39.6 µM | COLO 205 > 100 µM | SW-620 > 100 µM | RPMI-8226 > 100 µM | UACC-257 > 100 µM | SK-MEL-5 > 100 µM | ACHN > 100 µM | A549 > 100 µM | KM12 > 100 µM | HOP-62 > 100 µM | SF-268 > 100 µM | SNB-19 > 100 µM | M14 > 100 µM | OVCAR-4 > 100 µM | NCI-H522 > 100 µM | UO-31 > 100 µM | SK-OV-3 > 100 µM

CCCn1cc2c(O)nc(SC)nc2n1
inactive: NCI-H226 19.9 µM | SK-MEL-2 > 100 µM | CAKI-1 > 100 µM | NCI-H460 > 100 µM | COLO 205 > 100 µM | SW-620 > 100 µM | RPMI-8226 > 100 µM | UACC-257 > 100 µM | SK-MEL-5 > 100 µM | ACHN > 100 µM | A549 > 100 µM | KM12 > 100 µM | SF-268 59 µM | SNB-19 > 100 µM | M14 > 100 µM | OVCAR-4 91.4 µM | UO-31 72.6 µM
